Molecules are shown by their SMILES.

The results in this text go back to patent US8846719B2, “Isoxazolo-pyridine derivatives” (Roche Palo Alto LLC, priority 2007, dated 2014).

The target in the assay is human GABA A receptor α5β3γ2 (Homo sapiens (Human), UniProt P18507+P31644). Kind of assay: [3H]flumazenil competition binding assay, human GABA A α5β3γ2 receptors expressed in HEK293 cells. Conditions: human receptor; displacement of [3H]flumazenil (0.5 nM); means of two determinations; read-out: hKi GABAAa5. On the procedure: The affinity of compounds at GABA A receptor subtypes was measured by competition for [3H]flumazenil (85 Ci/mmol; Roche) binding to HEK293 cells expressing rat (stably transfected) or human (transiently transfected) receptors of composition α1β3γ2, α2β3γ2, α3β3γ2 and α5β3γ2.
Cell pellets were suspended in Krebs-tris buffer (4.8 mM KCl, 1.2 mM CaCl2, 1.2 mM MgCl2, 120 mM NaCl, 15 mM Tris; pH 7.5; binding assay buffer), homogenized by polytron for ca. 20 sec on ice and centrifuged for 60 min at 4° C. (50000 g; Sorvall, rotor: SM24=20000 rpm). The cell pellets were resuspended in Krebs-tris buffer and homogenized by polytron for ca. 15 sec on ice. Protein was measured (Bradford method, Bio-Rad) and aliquots of 1 mL were prepared and stored at −80° C.
Assays were incubated to equilibrium for 1 hour at 4° C. and harvested onto GF/C uni-filters (Packard) by filtration using a Packard harvester and washing with ice-cold wash buffer (50 mM Tris; pH 7.5). After drying, filter-retained radioactivity was detected by liquid scintillation counting. Ki values were calculated using Excel-Fit (Microsoft) and are the means of two determinations.
For orientation: In a radioligand displacement assay an active substance lowers the binding of a labelled ligand.

In the case of `Cc1onc(-c2ccccc2)c1COc1cccc(C#N)n1` [Example 73, 6-(5-Methyl-3-phenyl-isoxazol-4-ylmethoxy)-pyridine-2-carbonitrile], the Ki amounted to 20.9 nM.

In the case of `O=C(NC1CC1)c1ccc(OCc2conc2-c2ccc(F)cn2)nc1` [Example 367, Cyclopropyl-6-[3-(5-fluoro-pyridin-2-yl)-isoxazol-4-ylmethoxy]-nicotinamide], the Ki is 13.5 nM. `Cc1onc(-c2ccc(F)cn2)c1COc1ccc(C(=O)NC2CCOCC2)cn1` [Example 288, 6-[3-(5-Fluoro-pyridin-2-yl)-5-methyl-isoxazol-4-ylmethoxy]-(tetrahydro-pyran-4-yl)-nicotinamide]: the Ki came out at 0.4 nM.

`Cc1onc(-c2ccc(Cl)cc2)c1COc1ccc(C(=O)NC2CC2)cn1` [Example 120, 6-[3-(4-Chloro-phenyl)-5-methyl-isoxazol-4-ylmethoxy]-N-cyclopropyl-nicotinamide]: the Ki was determined as 1.1 nM. Under `Cc1onc(-c2ccccc2)c1COc1ccc(C(=O)NC2CC(OCc3ccccc3)C2)cn1` (centres unmarked) [Example 226, N-(3-Benzyloxy-cyclobutyl)-6-(5-methyl-3-phenyl-isoxazol-4-ylmethoxy)-nicotinamide] stands 2.6 nM; under `Cc1onc(-c2ccc(F)cc2)c1COc1ccc(C(=O)O)cn1` [Example 104, 6-[3-(4-Fluoro-phenyl)-5-methyl-isoxazol-4-ylmethoxy]-nicotinic acid], 39.5 nM; under `CSc1ccc(OCc2c(-c3ccccc3)noc2C)nc1` [Example 247, 2-(5-Methyl-3-phenyl-isoxazol-4-ylmethoxy)-5-methylsulfanyl-pyridine], 17.7 nM. For the compound `O=C(NCC1CC1)c1ccc(OCc2c(-c3ccccc3)noc2C(F)(F)F)nc1` [Example 132, N-Cyclopropylmethyl-6-(3-phenyl-5-trifluoromethyl-isoxazol-4-ylmethoxy)-nicotinamide], the Ki came out at 28.3 nM. Under `Cc1onc(-c2cccc(Cl)c2)c1COc1ccc(C(=O)NC2CCOCC2)cn1` [Example 101, 6-[3-(3-Chloro-phenyl)-5-methyl-isoxazol-4-ylmethoxy]-N-(tetrahydro-pyran-4-yl)-nicotinamide] stands 3.9 nM; under `Cc1onc(-c2ccccc2)c1COc1ccc(C(=O)N[C@H]2CCCC[C@H]2O)cn1` (single isomer, unassigned) [Example 204, N-((1S,2R)-2-Hydroxy-cyclohexyl)-6-(5-methyl-3-phenyl-isoxazol-4-ylmethoxy)-nicotinamide or N-((1R,2S)-2-Hydroxy-cyclohexyl)-6-(5-methyl-3-phenyl-isoxazol-4-ylmethoxy)-nicotinamide], 4.4 nM; under `Cc1onc(-c2cccc(F)c2F)c1COc1ccc(C(=O)NC(C)C)cn1` [Example 261, 6-[3-(2,3-Difluoro-phenyl)-5-methyl-isoxazol-4-ylmethoxy]-N-isopropyl-nicotinamide], 26.5 nM.

`CNC(=O)c1ccc(OCc2c(-c3ccc(F)cc3)noc2C(F)(F)F)nc1` [Example 137, 6-[3-(4-Fluoro-phenyl)-5-trifluoromethyl-isoxazol-4-ylmethoxy]-N-methyl-nicotinamide]: the Ki was found to be 19.8 nM. Turning to `Cc1onc(-c2ccccn2)c1COc1ccc(C(=O)NC2CC2)cn1` [Example 278, N-Cyclopropyl-6-(5-methyl-3-pyridin-2-yl-isoxazol-4-ylmethoxy)-nicotinamide], the Ki stood at 1.6 nM.

`O=C(NC(CO)CO)c1ccc(OCc2conc2-c2ccc(Cl)cc2)nc1` [Example 353, 6-[3-(4-Chloro-phenyl)-isoxazol-4-ylmethoxy]-N-(2-hydroxy-1-hydroxymethyl-ethyl)-nicotinamide]: the Ki was determined as 5.5 nM. Under `Cc1onc(-c2ccccc2)c1COc1ccc(C(=O)N2CCSC2)cn1` [Example 242, [6-(5-Methyl-3-phenyl-isoxazol-4-ylmethoxy)-pyridin-3-yl]-thiazolidin-3-yl-methanone] stands 37.3 nM; under `O=C(NC1CCOCC1)c1ccc(OCc2conc2-c2ccccc2)nc1` [Example 322, 6-(3-Phenyl-isoxazol-4-ylmethoxy)-N-(tetrahydro-pyran-4-yl)-nicotinamide], 17.7 nM; under `Cc1onc(-c2ccccc2)c1COc1ccc(C(=O)N2CCC[C@@H]2CO)cn1` [Example 225], 20.2 nM.

As to `CCNC(=O)c1ccc(OCc2c(-c3ccc(F)cc3)noc2C(F)(F)F)nc1` [Example 138, N-Ethyl-6-[3-(4-fluoro-phenyl)-5-trifluoromethyl-isoxazol-4-ylmethoxy]-nicotinamide], the Ki was found to be 33.3 nM. As for `COC(=O)c1ccc(OCc2c(-c3ccc(F)cc3)noc2C(F)(F)F)nc1` [Example 136, 6-[3-(4-Fluoro-phenyl)-5-trifluoromethyl-isoxazol-4-ylmethoxy]-nicotinic acid methyl ester], the Ki was determined as 57 nM. `CC(C)NC(=O)c1ccc(OCc2c(-c3ccc(F)cc3)noc2C(F)(F)F)nc1` [Example 142, 6-[3-(4-Fluoro-phenyl)-5-trifluoromethyl-isoxazol-4-ylmethoxy]-N-isopropyl-nicotinamide]: the Ki was determined as 33.5 nM.

In the case of `Cc1onc(-c2ccccc2)c1COc1ccc(C(=O)N[C@@H](C)CO)cn1` [Example 196, N—((S)-2-Hydroxy-1-methyl-ethyl)-6-(5-methyl-3-phenyl-isoxazol-4-ylmethoxy)-nicotinamide], the Ki was 0.7 nM.

In the case of `Cc1onc(-c2ccccc2)c1COc1ccc(C(=O)N2CCOCC2(C)C)cn1` [Example 71, (3,3-Dimethyl-morpholin-4-yl)-[6-(5-methyl-3-phenyl-isoxazol-4-ylmethoxy)-pyridin-3-yl]-methanone], the Ki is 80.8 nM.

In the case of `Cc1onc(-c2ccc(Cl)cn2)c1COc1ccc(C(=O)N2CCOCC2)cn1` [Example 309, {6-[3-(5-Chloro-pyridin-2-yl)-5-methyl-isoxazol-4-ylmethoxy]-pyridin-3-yl}-morpholin-4-yl-methanone], the Ki worked out at 0.6 nM. Under `Cc1onc(-c2ccccc2)c1COc1ccc(C(=O)N[C@H]2CCOC2)cn1` [Example 202, 6-(5-Methyl-3-phenyl-isoxazol-4-ylmethoxy)-N—(S)-tetrahydro-furan-3-yl-nicotinamide] stands 1.6 nM. Turning to `CCNC(=O)c1ccc(OCc2c(-c3ccccc3)noc2C)nc1` [Example 9, N-Ethyl-6-(5-methyl-3-phenyl-isoxazol-4-ylmethoxy)-nicotinamide], the Ki worked out at 2.9 nM. Under `Cc1onc(-c2ccncn2)c1COc1ccc(C(=O)NC2CC2)cn1` [Example 314, N-Cyclopropyl-6-(5-methyl-3-pyrimidin-4-yl-isoxazol-4-ylmethoxy)-nicotinamide] stands 5.6 nM. The result for `Cc1onc(-c2ccc(F)cn2)c1COc1ccc(C(=O)NC2CC2)cn1` [Example 290, Cyclopropyl-6-[3-(5-fluoro-pyridin-2-yl)-5-methyl-isoxazol-4-ylmethoxy]-nicotinamide] reads 0.6 nM; that for `Cc1onc(-c2ccccc2)c1COc1ccc(C(=O)NC2CN(C(=O)OC(C)(C)C)C2)cn1` [Example 216, 3-{[6-(5-Methyl-3-phenyl-isoxazol-4-ylmethoxy)-pyridine-3-carbonyl]-amino}-azetidine-1-carboxylic acid tert-butyl ester], 4.5 nM. For the compound `CC[C@H](CO)NC(=O)c1ccc(OCc2c(-c3ccccc3)noc2C)nc1` [Example 209, N—((R)-1-Hydroxymethyl-propyl)-6-(5-methyl-3-phenyl-isoxazol-4-ylmethoxy)-nicotinamide], the Ki stood at 2.3 nM. As to `Cc1onc(-c2ccc(Cl)cc2)c1COc1ccc(C(=O)N[C@H]2CCC[C@@H]2O)cn1` (single isomer, unassigned) [Example 260, 6-[3-(4-Chloro-phenyl)-5-methyl-isoxazol-4-ylmethoxy]-N-((1S,2S)-2-hydroxy-cyclopentyl)-nicotinamide or 6-[3-(4-chloro-phenyl)-5-methyl-isoxazol-4-ylmethoxy]-N-((1R,2R)-2-hydroxy-cyclopentyl)-nicotinamide], the Ki was 0.5 nM. Under `Cc1onc(-c2ccc(F)cc2)c1CNc1ccc(C(=O)NC2CCOCC2)cn1` [Example 177, 6-{[3-(4-Fluoro-phenyl)-5-methyl-isoxazol-4-ylmethyl]-amino}-N-(tetrahydro-pyran-4-yl)-nicotinamide] stands 6.5 nM; under `Cc1onc(-c2ccccc2)c1COc1ccc(C(=O)NCC(C)(C)O)cn1` [Example 193, N-(2-Hydroxy-2-methyl-propyl)-6-(5-methyl-3-phenyl-isoxazol-4-ylmethoxy)-nicotinamide], 2.3 nM. The result for `Cc1onc(-c2ccccc2F)c1COc1ccc(C(=O)NC2CCOCC2)cn1` [Example 87, 6-[3-(2-Fluoro-phenyl)-5-methyl-isoxazol-4-ylmethoxy]-N-(tetrahydro-pyran-4-yl)-nicotinamide] reads 4.6 nM; that for `Cc1onc(-c2ccccc2)c1COc1ccc(C(=O)N2CCC23COC3)cn1` [Example 82, [6-(5-Methyl-3-phenyl-isoxazol-4-ylmethoxy)-pyridin-3-yl]-(6-oxa-1-aza-spiro[3.3]hept-1-yl)-methanone], 16.8 nM.

On to `Cc1onc(-c2ccccc2)c1COc1ccc(C(=O)NCC(C)(C)CO)cn1` [Example 188, N-(3-Hydroxy-2,2-dimethyl-propyl)-6-(5-methyl-3-phenyl-isoxazol-4-ylmethoxy)-nicotinamide], for which the Ki was 7.7 nM.
